Tests used:
[1] = system: subgenomic HCV replicon of genotype 1b (Con1S1179I), NS5A region; assay: NS5A sequencing of HCV RNA, nucleotide and amino acid substitution rates in Con1 replicon cells (Example 2); type: cell-based, Hepatitis C virus; details: for dn/ds / Ts/Tv / Percentage of sites showing positive selection / location of mutations in NS5A / Fold increase (Amino acid change per site) / Fold increase (Nt. change per site): 48 hrs; for dn/ds: SNAP, control 0.31; for Ts/Tv: control 3.3; for Percentage of sites showing positive selection: control 4.25%; for Amino acid change per site / Nt. change per site: Con1 replicon cells, once daily for 48 hrs, T7 baseline subtracted; for Nt. change per site: ethanol 0.5% v/v, BSO 20 μM, H2O2 100 μM, acetaldehyde 10 μM; for location of mutations in NS5A: SNAP plot against codons; for percentage of nucleotide substitutions A→C / percentage of nucleotide substitutions A→G / percentage of nucleotide substitutions A→U / percentage of nucleotide substitutions C→A / percentage of nucleotide substitutions C→G / percentage of nucleotide substitutions C→U / percentage of nucleotide substitutions G→A / percentage of nucleotide substitutions G→C / percentage of nucleotide substitutions G→U / percentage of nucleotide substitutions U→A / percentage of nucleotide substitutions U→C / percentage of nucleotide substitutions U→G: of all nt. substitutions in the group; for Fold increase (Amino acid change per site) / Fold increase (Nt. change per site): over control
Description: Huh7 cell clones (SgPC2 cells) supporting continuous replication of a subgenomic HCV replicon of genotype 1b (Con1S1179I sequence) were used (Choi J. et al. (2004) Hepatology 39:81-89; Blight K J et al. (2000) Science 290:1972). Subgenomic replicons support the HCV RNA genome replication by the viral replicase but no virus is formed. The in vitro transcription, transfection of the viral RNA, and Huh7 human hepatoma cell culture were performed as described (Choi J. et al. (2004) Hepatology 39:81-89; Blight K J et al. (2000) Science 290:1972). All biochemicals including ethanol (molecular biology grade), acetaldehyde, BSO, H2O2, dipyridal, and GSH ethyl ester were obtained from SigmaAldrich except PIH, which was synthesized according to published methods (Kicic A et al., (2001) Cancer 92: 3093-3110; Ponka P. et al., (1979) FEBS Lett 97: 317-321).
Total RNAs were collected using Trizol (Invitrogen). Then, the NS5A region (nt. 4612 to 6013 of Con1 replicon) was reverse transcribed/amplified with AccuScript High Fidelity RT-PCR System (Agilent). The reverse primer used for reverse transcription and PCR amplification was 5′-[…]-3′ (SEQ ID NO: 1), and the forward primer was 5′-[…]-3′ (SEQ ID NO: 2). The XbaI and HindIII restriction enzyme sites are underlined. The cDNA products were cloned into pUC19 via HindIII and XbaI sites and sequenced at the Joint Genome Institute (Livermore, Calif.) and University of California Berkeley Sequencing (Berkeley, Calif.). Sequences were aligned against Con1(S1179I) sequence, using BioEdit/MEGA 4.0 Molecular Evolutionary Genetics Analysis software. Cumulative synonymous and nonsynonymous mutations were computed using Synonymous Nonsynonomous Analysis Program (SNAP; www.hcv.lanl.gov). The […] ratio was calculated using SNAP. Amino acid substitution trends were analyzed by position with MutationCounter, a mutation counting program, developed for this project. The sequences were compared with 1,212 genotype 1b NS5A sequences pooled from the Lawrence Livermore HCV sequence database (www.hcv.lanl.gov) which included sequences from the European, Asian, and Russian databases. Sequences harboring gaps, undetermined nucleotides, or incomplete NS5A sequences were removed prior to the analysis.
To test whether ethanol can affect the HCV RNA sequence, Con1 replicon cells that support genotype 1b subgenomic HCV RNA replication were incubated with ethanol (0.5% v/v), BSO (20 μM), H2O2 (100 μM), or acetaldehyde (10 μM) once daily for 48 hrs with a change of the cell culture medium at the time of each treatment. Acetaldehyde and H2O2 are generated during hepatic metabolism of ethanol. BSO, by inhibiting GSH biosynthesis, mimics GSH depletion seen in hepatitis C patients. GSH participates in detoxification reactions that remove reactive species such as H2O2 and acetaldehyde. Thus, by decreasing GSH, BSO also amplifies the effects of endogenous ROS and RNS, allowing one to test the effects of endogenous ROS/RNS. Then, the RNA was collected, and the NS5A region corresponding to nt. 4612 to 6013 of Con1 replicon was reverse transcribed using AccuScript reverse transcriptase and amplified with PfuUltra (Agilent). PfuUltra is a high fidelity DNA polymerase with an error rate of 4.3×10^−9; AccuScript reverse transcriptase has an error rate of 1.61×10^−7. Then, the cDNA products were cloned into pUC19 and sequenced by the Sanger method.

Huh7 cells = type: cell-based, human
Description: Total RNA was isolated using Trizol (Invitrogen) and analyzed for 8-OH-guanosine (8-OH-G) by northwestern, as described (Shan X et al. (2003) J. Neurosci. 23:4913-4921). Briefly, RNA was size-fractionated by agarose gel electrophoresis, transferred to a nylon membrane, blocked with 1% BSA, incubated sequentially with monoclonal anti-8-OH-G/dG antibodies (QED Bioscience, Inc.) and then with goat anti-mouse HRP-conjugated secondary antibody (Santa Cruz Biotechnology), and signals were detected, using an ECL kit (Amersham). In addition, RNA was digested with nuclease P1 (Sigma, US Biological) and alkaline phosphatase (Promega) and analyzed for 8-OH-G content using RNA Damage Kit (Cell Biolabs, Inc.), following manufacturer's protocols.
GO continuously generates H2O2 extracellularly, in the presence of glucose and can be used to mimic inflammation and continued oxidative stress seen during chronic hepatitis C. […] An in vitro-oxidized control Huh7 RNA (incubated with H2O2+cytochrome C) was used as a positive control (FIG. 3A). […] NiCl2 was used as a positive control genotoxin in FIGS. 3B and 3C.

| SMILES | dn/ds [1] | Ts/Tv [1] | Percentage of sites showing positive selection [1] [%] | Amino acid change per site [1] | Nt. change per site [1] | location of mutations in NS5A [1] | percentage of nucleotide substitutions A→C [1] [percentage] | percentage of nucleotide substitutions A→G [1] [percentage] | percentage of nucleotide substitutions A→U [1] [percentage] | percentage of nucleotide substitutions C→A [1] [percentage] | percentage of nucleotide substitutions C→G [1] [percentage] | percentage of nucleotide substitutions C→U [1] [percentage] | percentage of nucleotide substitutions G→A [1] [percentage] | percentage of nucleotide substitutions G→C [1] [percentage] | percentage of nucleotide substitutions G→U [1] [percentage] | percentage of nucleotide substitutions U→A [1] [percentage] | percentage of nucleotide substitutions U→C [1] [percentage] | percentage of nucleotide substitutions U→G [1] [percentage] | Fold increase (Amino acid change per site) [1] [fold] | other results |
| --- | --- | --- | --- | --- | --- | --- | --- | --- | --- | --- | --- | --- | --- | --- | --- | --- | --- | --- | --- | --- |
| CCCCS(=N)(=O)CCC(N)C(=O)O [BSO, L-buthionine-S,R-sulfoximine] | 0.72 | 3.3 | 12.3 | 3.24×10^−3 amino acid change per site | 1.20×10^−3 nt. change per site | clustered in the C-terminal half of NS5A | 1.28 | 24.36 | 2.56 | 3.85 | 5.13 | 8.97 | 16.67 | 3.85 | 3.85 | 0 | 29.49 | 0 | 11.6 |  |
| CCO [Ethanol, ethanol] | 1.05 | 6.8 | 12.3 | 4.97 × 10^−3 amino acid change per site | 1.71 × 10^−3 nt. change per site | clustered in the C-terminal half of NS5A | 1.30 | 25.97 | 2.60 | 0 | 0 | 18.18 | 12.99 | 6.49 | 2.60 | 0 | 29.87 | 0 | 17.8 | Nt. change per site ([1]; listed as ethanol): 1.71×10^−3 nt. change per site; Amino acid change per site ([1]; listed as ethanol): 4.97×10^−3 amino acid change per site; Fold increase (Nt. change per site) [1]: 5.9 fold; Fold increase (Amino acid change per site) ([1]; listed as ethanol): ~18 fold; Fold increase (Nt. change per site) ([1]; listed as ethanol): about 6 fold; 8-OHG in Huh7 cells (Huh7 cells): elevated |

Reference: patent publication US20110206638A1, “COMPOSITIONS AND METHODS FOR REDUCING THE MUTATION RATE OF VIRUSES” (priority 2010, published 2011)
